Test results published in patent US8546376B2, “Pharmaceutical compounds” (Almac Discovery Limited, priority 2009, dated 2013).
Where a name gives a salt, the structure may show the parent alone.

Experiments:
Assay type in all cases: biochemical
AKT1 = biological target: T1, AKT1 (Homo sapiens, UniProt P31749); experiment: AKT Kinase Assay (IMAP fluorescent polarisation) vs AKT1; conditions: activated AKT1, FAM Crosstide substrate
T1 construct: purchased SignalChem
Procedure, shortened: (§1)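 IC50 values came from non-linear regression of % inhibition relative to vehicle, measured by IMAP fluorescence polarisation (485/528 nm) after a 1 h room-temperature reaction of FAM-Crosstide and ATP. Each activated isoform was first exposed to compound for 45 min across fourteen half-log doses.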

AKT3 = biological target: T2, AKT3 (Homo sapiens, UniProt Q9Y243); experiment: AKT Kinase Assay (IMAP fluorescent polarisation) vs AKT3; conditions: activated AKT3, FAM Crosstide substrate
T2 construct: purchased SignalChem
T2 sequence (Q9Y243 whole entry): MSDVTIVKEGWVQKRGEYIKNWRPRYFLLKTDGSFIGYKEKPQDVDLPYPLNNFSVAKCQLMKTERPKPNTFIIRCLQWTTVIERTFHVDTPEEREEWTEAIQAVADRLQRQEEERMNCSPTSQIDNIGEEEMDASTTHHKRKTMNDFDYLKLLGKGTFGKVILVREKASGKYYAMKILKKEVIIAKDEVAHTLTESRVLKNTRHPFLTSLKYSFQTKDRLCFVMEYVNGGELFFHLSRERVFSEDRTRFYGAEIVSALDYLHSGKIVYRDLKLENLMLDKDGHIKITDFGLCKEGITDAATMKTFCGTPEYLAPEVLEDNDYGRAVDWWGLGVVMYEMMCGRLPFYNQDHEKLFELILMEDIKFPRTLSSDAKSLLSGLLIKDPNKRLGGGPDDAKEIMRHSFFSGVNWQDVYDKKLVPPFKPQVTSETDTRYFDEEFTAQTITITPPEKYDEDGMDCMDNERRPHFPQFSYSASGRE
Procedure, shortened: as §1

AKT2 = biological target: T3, AKT2 (Homo sapiens, UniProt P31751); experiment: AKT Kinase Assay (IMAP fluorescent polarisation) vs AKT2; conditions: activated AKT2, FAM Crosstide substrate
T3 construct: purchased SignalChem
T3 sequence (P31751 whole entry): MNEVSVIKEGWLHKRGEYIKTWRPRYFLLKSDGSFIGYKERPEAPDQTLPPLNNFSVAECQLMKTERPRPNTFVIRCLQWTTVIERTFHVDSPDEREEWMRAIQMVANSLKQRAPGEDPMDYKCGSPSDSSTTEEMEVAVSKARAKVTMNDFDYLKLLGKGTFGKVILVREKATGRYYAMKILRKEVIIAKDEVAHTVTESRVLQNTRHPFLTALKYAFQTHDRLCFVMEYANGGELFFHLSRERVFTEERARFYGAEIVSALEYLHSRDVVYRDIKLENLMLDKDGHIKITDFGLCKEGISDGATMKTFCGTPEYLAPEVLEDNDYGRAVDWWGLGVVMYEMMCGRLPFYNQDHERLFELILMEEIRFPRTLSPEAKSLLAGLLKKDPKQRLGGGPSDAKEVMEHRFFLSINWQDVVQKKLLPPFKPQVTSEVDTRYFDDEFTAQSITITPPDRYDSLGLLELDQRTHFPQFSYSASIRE
Procedure, shortened: as §1

T1 sequence (P31749 whole entry): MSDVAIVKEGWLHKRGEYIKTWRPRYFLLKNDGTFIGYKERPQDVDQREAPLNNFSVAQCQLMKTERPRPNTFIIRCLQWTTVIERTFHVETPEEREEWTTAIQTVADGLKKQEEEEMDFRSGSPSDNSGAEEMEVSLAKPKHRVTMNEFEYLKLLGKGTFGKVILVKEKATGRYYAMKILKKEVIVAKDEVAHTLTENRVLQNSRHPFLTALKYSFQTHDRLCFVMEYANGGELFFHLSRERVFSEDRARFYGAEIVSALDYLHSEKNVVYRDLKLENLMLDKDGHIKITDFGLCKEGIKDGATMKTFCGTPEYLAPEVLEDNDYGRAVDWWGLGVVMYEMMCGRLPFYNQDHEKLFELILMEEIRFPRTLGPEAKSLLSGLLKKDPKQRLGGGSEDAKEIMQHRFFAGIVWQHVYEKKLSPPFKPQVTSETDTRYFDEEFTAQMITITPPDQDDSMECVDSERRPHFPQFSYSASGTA

IC50 (AKT1) [nM] | IC50 (AKT3) [nM] | IC50 (AKT2) [nM] | SMILES
≤ 1000 | 1000 to 10000 | ≤ 1000 | Cc1n[nH]cc1-c1cccc2c(=O)c(-c3ccc(C4(N)CCC4)cc3)c(-c3ccccc3)oc12 [Example 73, 3-[4-(1-Amino-cyclobutyl)-phenyl]-8-(3-methyl-1H-pyrazol-4-yl)-2-phenyl-chromen-4-one hydrochloride]
≤ 1000 | 1000 to 10000 | ≤ 1000 | NC1(c2ccc(-c3c(-c4ccccc4)oc4c(-n5ccnc5)cccc4c3=O)cc2)CCC1 [Example 74, 3-[4-(1-Amino-cyclobutyl)-phenyl]-8-imidazol-1-yl-2-phenyl-chromen-4-one hydrochloride]
≤ 1000 | 1000 to 10000 | 1000 to 10000 | NC1(c2ccc(-c3c(-c4ccccc4)oc4c(-c5c[nH]nc5C(F)(F)F)cccc4c3=O)cc2)CCC1 [Example 76, 3-[4-(1-Amino-cyclobutyl)-phenyl]-2-phenyl-8-(3-trifluoromethyl-1H-pyrazol-4-yl)-chromen-4-one]
1000 to 10000 | 1000 to 10000 | 1000 to 10000 | Cc1noc(C)c1-c1cccc2c(=O)c(-c3ccc(C4(N)CCC4)cc3)c(-c3ccccc3)oc12 [Example 78, 3-[4-(1-Amino-cyclobutyl)-phenyl]-8-(3,5-dimethyl-isoxazol-4-yl)-2-phenyl-chromen-4-one]
≤ 1000 | 1000 to 10000 | ≤ 1000 | CCn1ncc2ccc3c(=O)c(-c4ccc(C5(N)CCC5)cc4)c(-c4ccccc4)oc3c21 [Example 81, 7-[4-(1-Amino-cyclobutyl)-phenyl]-1-ethyl-8-phenyl-1H-9-oxa-1,2-diaza-cyclopenta[a]naphthalen-6-one hydrochloride]
≤ 1000 | > 10000 | ≤ 1000 | CCn1cc2ccc3c(=O)c(-c4ccc(C5(N)CCC5)cc4)c(-c4ccccc4)oc3c2n1 [Example 82, 7-[4-(1-Amino-cyclobutyl)-phenyl]-2-ethyl-8-phenyl-2H-9-oxa-1,2-diaza-cyclopenta[a]naphthalen-6-one hydrochloride]
≤ 1000 | 1000 to 10000 | ≤ 1000 | CC(C)n1ncc2ccc3c(=O)c(-c4ccc(C5(N)CCC5)cc4)c(-c4ccccc4)oc3c21 [Example 83, 7-[4-(1-Amino-cyclobutyl)-phenyl]-1-isopropyl-8-phenyl-1H-9-oxa-1,2-diaza-cyclopenta[a]naphthalen-6-one hydrochloride]
≤ 1000 | 1000 to 10000 | ≤ 1000 | NC1(c2ccc(-c3c(-c4ccccc4)oc4c(ccc5cn(CCO)nc54)c3=O)cc2)CCC1 [Example 86, 7-[4-(1-Amino-cyclobutyl)-phenyl]-2-(2-hydroxy-ethyl)-8-phenyl-2H-9-oxa-1,2-diaza-cyclopenta[a]naphthalen-6-one hydrochloride]
≤ 1000 | ≤ 1000 | ≤ 1000 | Cn1cnc2ccc3c(=O)c(-c4ccc(C5(N)CCC5)cc4)c(-c4ccccc4)oc3c21 [Example 96, 7-[4-(1-Amino-cyclobutyl)-phenyl]-1-methyl-8-phenyl-1H-chromeno[7,8-d]imidazol-6-one]
≤ 1000 | > 10000 | 1000 to 10000 | NC1(c2ccc(-c3c(-c4ccccc4)oc4c(ccc5c(I)n[nH]c54)c3=O)cc2)CCC1 [Example 97, 7-[4-(1-Amino-cyclobutyl)-phenyl]-3-iodo-8-phenyl-1H-9-oxa-1,2-diaza-cyclopenta[a]naphthalen-6-one hydrochloride]
≤ 1000 | 1000 to 10000 | 1000 to 10000 | NC1(c2ccc(-c3c(-c4ccccc4)oc4c(ccc5c(Cl)n[nH]c54)c3=O)cc2)CCC1 [Example 99, 7-[4-(1-Amino-cyclobutyl)-phenyl]-3-chloro-8-phenyl-1H-9-oxa-1,2-diaza-cyclopenta[a]naphthalen-6-one hydrochloride]

More lines, now with the values behind:

SMILES | IC50 (AKT1) [nM] | IC50 (AKT3) [nM] | IC50 (AKT2) [nM]
NC1(c2ccc(-c3c(-c4ccccc4)oc4c(N5CCOCC5)cccc4c3=O)cc2)CCC1 [Example 72, 3-[4-(1-Amino-cyclobutyl)-phenyl]-8-morpholin-4-yl-2-phenyl-chromen-4-one hydrochloride] | ≤ 1000 | > 10000 | 1000 to 10000
Cc1c(-c2cccc3c(=O)c(-c4ccc(C5(N)CCC5)cc4)c(-c4ccccc4)oc23)cnn1C [Example 75, 3-[4-(1-Amino-cyclobutyl)-phenyl]-8-(1,5-dimethyl-1H-pyrazol-4-yl)-2-phenyl-chromen-4-one hydrochloride] | ≤ 1000 | 1000 to 10000 | ≤ 1000
NC1(c2ccc(-c3c(-c4ccccc4)oc4c(N5CCNC(=O)C5)cccc4c3=O)cc2)CCC1 [Example 77, 4-{3-[4-(1-Amino-cyclobutyl)-phenyl]-4-oxo-2-phenyl-4H-chromen-8-yl}-piperazin-2-one] | ≤ 1000 | 1000 to 10000 | 1000 to 10000
COc1ccc2c(=O)c(-c3ccc(C4(N)CCC4)cc3)c(-c3ccccc3)oc2c1-c1cn[nH]c1 [Example 79, 3-[4-(1-Amino-cyclobutyl)-phenyl]-7-methoxy-2-phenyl-8-(1H-pyrazol-4-yl)-chromen-4-one] | ≤ 1000 | ≤ 1000 | ≤ 1000
NC1(c2ccc(-c3c(-c4ccccc4)oc4c(-c5cn[nH]c5)nccc4c3=O)cc2)CCC1 [Example 80, 3-[4-(1-Amino-cyclobutyl)-phenyl]-2-phenyl-8-(1H-pyrazol-4-yl)-pyrano[2,3-c]pyridin-4-one hydrochloride] | ≤ 1000 | ≤ 1000 | ≤ 1000
CC(C)n1cc2ccc3c(=O)c(-c4ccc(C5(N)CCC5)cc4)c(-c4ccccc4)oc3c2n1 [Example 84, 7-[4-(1-Amino-cyclobutyl)-phenyl]-2-isopropyl-8-phenyl-2H-9-oxa-1,2-diaza-cyclopenta[a]naphthalen-6-one hydrochloride] | ≤ 1000 | 1000 to 10000 | ≤ 1000
NC1(c2ccc(-c3c(-c4ccccc4)oc4c(ccc5cnn(CCO)c54)c3=O)cc2)CCC1 [Example 85, 7-[4-(1-Amino-cyclobutyl)-phenyl]-1-(2-hydroxy-ethyl)-8-phenyl-1H-9-oxa-1,2-diaza-cyclopenta[a]naphthalen-6-one hydrochloride] | ≤ 1000 | 1000 to 10000 | ≤ 1000
NC1(c2ccc(-c3c(-c4ccccc4)oc4c(ccc5[nH]c(=O)[nH]c54)c3=O)cc2)CCC1 [Example 87, 7-[4-(1-Amino-cyclobutyl)-phenyl]-8-phenyl-1,3-dihydro-chromeno[7,8-d]imidazole-2,6-dione] | ≤ 1000 | > 10000 | ≤ 1000
NC1(c2ccc(-c3c(-c4ccccc4)oc4c(ccc5nn[nH]c54)c3=O)cc2)CCC1 [Example 88, 7-[4-(1-Amino-cyclobutyl)-phenyl]-8-phenyl-1H-9-oxa-1,2,3-triaza-cyclopenta[a]naphthalen-6-one] | ≤ 1000 | > 10000 | ≤ 1000
Cc1nc2ccc3c(=O)c(-c4ccc(C5(N)CCC5)cc4)c(-c4ccccc4)oc3c2[nH]1 [Example 89, 7-[4-(1-Amino-cyclobutyl)-phenyl]-2-methyl-8-phenyl-1H-chromeno[7,8-d]imidazol-6-one] | ≤ 1000 | 1000 to 10000 | ≤ 1000
Cc1nc2ccc3c(=O)c(-c4ccc(C5(N)CCC5)cc4)c(-c4ccccc4)oc3c2n1C [Example 90, 7-[4-(1-Amino-cyclobutyl)-phenyl]-1,2-dimethyl-8-phenyl-1H-chromeno[7,8-d]imidazol-6-one] | ≤ 1000 | ≤ 1000 | ≤ 1000
NC1(c2ccc(-c3c(-c4ccccc4)oc4c(ccc5[nH]c(=O)oc54)c3=O)cc2)CCC1 [Example 91, 7-[4-(1-Amino-cyclobutyl)-phenyl]-8-phenyl-3H-chromeno[7,8-d]oxazole-2,6-dione] | ≤ 1000 | > 10000 | ≤ 1000
NC1(c2ccc(-c3c(-c4ccccc4)oc4c5c(ccc4c3=O)NC(=O)CO5)cc2)CCC1 [Example 92, 7-[4-(1-Amino-cyclobutyl)-phenyl]-6-phenyl-1H-4,5-dioxa-1-aza-phenanthrene-2,8-dione] | ≤ 1000 | 1000 to 10000 | ≤ 1000
Nc1ccc2c(=O)c(-c3ccc(C4(N)CCC4)cc3)c(-c3ccccc3)oc2c1O [Example 93, 7-Amino-3-[4-(1-amino-cyclobutyl)-phenyl]-8-hydroxy-2-phenyl-chromen-4-one] | ≤ 1000 | > 10000 | 1000 to 10000
NC1(c2ccc(-c3c(-c4ccccc4)oc4c(ccc5nc(C(F)(F)F)[nH]c54)c3=O)cc2)CCC1 [Example 94, 7-[4-(1-Amino-cyclobutyl)-phenyl]-8-Phenyl-2-trifluoromethyl-1H-chromeno[7,8-d]imidazol-6-one] | ≤ 1000 | > 10000 | 1000 to 10000
NC1(c2ccc(-c3c(-c4ccccc4)oc4c(ccc5nc(C(F)F)[nH]c54)c3=O)cc2)CCC1 [Example 95, 7-[4-(1-Amino-cyclobutyl)-phenyl]-2-difluoromethyl-8-phenyl-1H-chromeno[7,8-d]imidazol-6-one] | ≤ 1000 | 1000 to 10000 | ≤ 1000
CCc1nn(C)c2c1ccc1c(=O)c(-c3ccc(C4(N)CCC4)cc3)c(-c3ccccc3)oc12 [Example 98, 7-[4-(1-Amino-cyclobutyl)-phenyl]-3-ethyl-1-methyl-8-phenyl-1H-9-oxa-1,2-diaza-cyclopenta[a]naphthalen-6-one hydrochloride] | ≤ 1000 | 1000 to 10000 | ≤ 1000
Cn1nc(Cl)c2ccc3c(=O)c(-c4ccc(C5(N)CCC5)cc4)c(-c4ccccc4)oc3c21 [Example 100, 7-[4-(1-Amino-cyclobutyl)-phenyl]-3-chloro-1-methyl-8-phenyl-1H-9-oxa-1,2-diaza-cyclopenta[a]naphthalen-6-one hydrochloride] | ≤ 1000 | 1000 to 10000 | 1000 to 10000
